Test results published in US7129073B2, “Regulation of neuronal function through metabotropic glutamate receptor signaling pathways” (The Rockefeller University, priority 2001, dated 2006).

How the values were obtained:
[1] = system: CKI; test: in vitro inhibitory potency of CKI-7 towards CKI; format: biochemical
Experimental: (§1) CKI may also regulate Cdk5 kinase activity in response to mGluR receptor activation, or vice versa. To examine these possibilities, experiments were performed with a CKI inhibitor, CKI-7. The crystal structure of the catalytic domain of casein kinase I complexed with CKI-7 provided evidence that CKI-7 achieves its selectivity for CKI by hydrophobic contacts and hydrogen bonding with the isoquinoline ring (Xu, R. M. et al. 1996. Proc. Natl. Acad. Sci. USA 93:6308–6313). In in vitro studies, the inhibitory potency (IC50 values) for CKI-7 towards CKI and Cdk5/p25 was determined.

[2] = target: Cdk5/p25 (Homo sapiens, UniProt Q00535); test: in vitro inhibitory potency of CKI-7 towards Cdk5/p25; format: biochemical
Experimental: as §1

[3] = system: MM2-CK1ε; test: kinase activity of Myc-MM2-CK1ε mutant immunoprecipitated from transfected N2a cells; format: cell-based; conditions: DHPG 100 μM 2 min, in the absence or presence of cyclosporin A
Experimental: Neuroblastoma N2a cells were cultured to 50–60% confluence in DMEM containing 5% fetal bovine serum. Four μg of the expression plasmid for HA-CK1ε or myc-MM2-CK1ε was transfected into N2a cells in 100 mm dishes using FuGENE6™. Twenty-four hours after transfection, cells were incubated at room temperature in phosphate-buffered Kreb's-Henseleit solution (Sigma) for 10 min and then with or without inhibitors for 30 min before treating with (S)-3,5-DHPG, for 2 min. Cells were then lysed in 1 ml of radio-immunoprecipitation (RIPA) buffer containing 1% NP-40, 150 mM NaCl, 0.1% SDS, 50 mM Tris, pH 8.0, 5 mM Na3VO4, 20 mM NaF, 20 mM β-glycerol-phosphate and protease inhibitors. Lysates were centrifuged at 10,000 g, and supernatants were used for immunoprecipitation and kinase assay.
For immunoprecipitation of CK1ε from N2a cells, lysates (1 mg of total protein) were precleared with 5 μl of mouse IgG (ICN) and 50 μl of protein A agarose for 30 min. Five μl (approximately 2 μg) of anti-HA or anti-myc antibody was added and samples were incubated for 1 h at 4° C. Five μl of anti-mouse rabbit IgG and 50 μl of protein A agarose were then added for 45 min. […]
CK1 assays were performed in a 30 μl assay volume with 2 μg of purified DARPP-32, 500 μM ATP and 5 μCi γ-^32P-ATP. […] Results were quantified using a Molecular Dynamics PHOSPHORIMAGER™. […]

[4] = system: HA-CK1ε; test: 32P metabolic labeling and two-dimensional phosphopeptide mapping of HA-CK1ε in N2a cells; format: cell-based; conditions: DHPG 2 or 4 min; returned to 0 min level at ten min

Sequence of Cdk5/p25 (Q00535 whole entry, species assumed): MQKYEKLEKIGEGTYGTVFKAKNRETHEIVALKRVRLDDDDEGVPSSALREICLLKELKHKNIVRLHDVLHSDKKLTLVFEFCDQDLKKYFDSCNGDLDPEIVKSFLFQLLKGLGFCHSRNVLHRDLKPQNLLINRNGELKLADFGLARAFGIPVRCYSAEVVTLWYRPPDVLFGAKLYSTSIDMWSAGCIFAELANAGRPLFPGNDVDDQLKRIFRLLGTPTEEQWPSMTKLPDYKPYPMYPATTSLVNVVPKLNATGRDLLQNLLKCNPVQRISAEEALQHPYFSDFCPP
Sequence of Cdk5/p25 (Q15078 99-307 partner limits assumed, species assumed): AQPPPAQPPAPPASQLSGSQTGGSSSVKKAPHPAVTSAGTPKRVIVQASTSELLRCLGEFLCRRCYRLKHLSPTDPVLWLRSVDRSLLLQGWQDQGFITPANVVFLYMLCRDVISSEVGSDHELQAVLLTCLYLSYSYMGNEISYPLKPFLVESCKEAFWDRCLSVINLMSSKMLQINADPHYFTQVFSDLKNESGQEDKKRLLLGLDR

IC50 [1] [µM] | IC50 [2] [µM] | SMILES | effect on MM2-CK1ε activity [3] | effect on phosphorylation state of CK1ε (subset of acidic phosphopeptides) [4]
15 | 200 | NCCNS(=O)(=O)c1ccc(Cl)c2ccncc12 [CKI-7] | – | –
– | – | N[C@H](C(=O)O)c1cc(O)cc(O)c1 [DHPG, (S)-3,5-Dihydroxyphenylglycine] | no effect | rapid and transient dephosphorylation
